Results on one molecule are retold here after US6294573A, “Reverse hydroxamate inhibitors of matrix metalloproteinases” (Abbott Laboratories, priority 2000, dated 2001).

Broadly, the pIC50 is the IC50 on a negative log10 scale, so that one unit is a factor of ten.

pIC50: −log10 of the molar value.

For the test, the target named is T1, Recombinant truncated stromelysin (human sequence) (Homo sapiens, UniProt P08254).
T1 construct: made in house; host or cells: E. coli
Briefly: Inhibition of stromelysin (cleavage of thiopeptide ester substrate, DTNB readout at 405 nm). To be noted: 30 minute assay, ambient temperature, pH 6.5, thiopeptide ester substrate. Type of test: biochemical. The protocol: The efficacy of the compounds of this invention as matrix metalloproteinase inhibitors was determined by measuring the inhibition of stromelysin. The inhibition of stromelysin by the compounds of this invention was determined as follows: Recombinant truncated stromelysin (human sequence) produced in E. coli was prepared by expression and purification of the protein as described by Ye et al. (Biochemistry, 1992, 31, 11231-11235, which is incorporated herein by reference). The enzyme was assayed by its cleavage of the thiopeptide ester substrate Ac-Pro-Leu-Gly-[2-mercapto-4-methylpentanoyl]-Leu-Gly-OEt as described by Weingarten and Feder (Anal. Biochem., 1985, 147, 437-440 (1985), which is incorporated herein by reference) as a substrate of vertebrate collagenase. The reported conditions were modified to allow assays to be carried out in a microtiter plate. Upon hydrolysis of the thioester bond, the released thiol group reacted rapidly with 5,5'-dithio-bis(2-nitrobenzoic acid) (DTNB) to produce a yellow color which was measured by a microtiter plate reader set at 405 nm. The rates of cleavage of the substrate by stromelysin in the presence or absence of inhibitors were measured in a 30 minute assay at ambient temperature. […] The potency of the compounds [IC50 ] was calculated from the inhibition/inhibitor concentration data.

T1 sequence (P08254 100-273 limits assumed): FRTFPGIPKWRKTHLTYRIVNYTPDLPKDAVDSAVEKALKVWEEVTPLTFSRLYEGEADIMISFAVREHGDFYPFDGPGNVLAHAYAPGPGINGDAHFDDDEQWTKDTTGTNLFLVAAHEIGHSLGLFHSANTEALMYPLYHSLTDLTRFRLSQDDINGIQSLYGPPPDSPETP

Consider `CN1C(=O)N(CCC(COc2ccc(-c3ccc(C#N)cc3)cc2)N(O)C=O)C(=O)C1(C)C` (racemic) [Example 5, (±)-N-[1-[[(4'-cyano-[1,1'-biphenyl]-4-yl)oxy]methyl]-3-(3,4,4-trimethyl-2,5-dioxo-1-imidazolidinyl)propyl]-N-hydroxyformamide], for which the pIC50 was 7.77.
